Where a name gives a salt, the structure may show the parent alone.

The target in the test is T1, Flt-3 (Homo sapiens, UniProt P36888).
T1 construct: amino acids 563-993 of the cytoplasmic kinase domain of human Flt-3; made in house; host or cells: Sf9 insect cells (baculovirus, vector pFbacG01)
T1 sequence (P36888 563-993): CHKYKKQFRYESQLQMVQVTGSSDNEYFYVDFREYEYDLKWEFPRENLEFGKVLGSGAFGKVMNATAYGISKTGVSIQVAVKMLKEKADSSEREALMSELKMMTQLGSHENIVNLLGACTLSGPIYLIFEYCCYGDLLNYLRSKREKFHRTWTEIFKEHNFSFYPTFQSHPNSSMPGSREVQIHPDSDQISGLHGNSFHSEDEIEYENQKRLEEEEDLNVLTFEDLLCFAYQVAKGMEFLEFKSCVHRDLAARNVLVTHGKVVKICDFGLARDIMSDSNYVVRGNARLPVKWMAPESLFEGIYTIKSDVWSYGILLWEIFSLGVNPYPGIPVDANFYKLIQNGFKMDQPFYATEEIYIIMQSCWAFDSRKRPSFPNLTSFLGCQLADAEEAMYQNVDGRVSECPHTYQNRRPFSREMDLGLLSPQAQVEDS
Nature of the test: Flt-3 kinase inhibition (GST-Flt-3, 33P incorporation into poly(Glu,Tyr)). The format is biochemical. The procedure:
Flt-3 kinase inhibition is determined as follows: The baculovirus donor vector pFbacG01 (GIBCO) is used to generate a recombinant baculovirus expressing the amino acid region amino acids 563-993 of the cytoplasmic kinase domain of human Flt-3. The coding sequence for the cytoplasmic domain of Flt-3 is amplified by PCR from human c-DNA libraries (Clontech). The amplified DNA fragments and the pFbacG01 vector are made compatible for ligation by digestion with BamHI and HindIII. Ligation of these DNA fragments results in the baculovirus donor plasmid pFbacG01-Flt-3. The production of the viruses, the expression of proteins in Sf9 cells and the purification of the GST-fused proteins are performed as follows:
Production of virus: The baculovirus donor plasmid (pFbacG01-Flt-3) containing the Flt-3 kinase domain is transfected into the DH10Bac cell line (GIBCO) and the transfected cells are plated on selective agar plates. Colonies without insertion of the fusion sequence into the viral genome (carried by the bacteria) are blue. Single white colonies are picked and viral DNA (bacmid) is isolated from the bacteria by standard plasmid purification procedures. Sf9 or Sf21 cells (American Type Culture Collection) are then transfected in flasks with the viral DNA using Cellfectin reagent.
Protein expression in Sf9 cells: Virus containing media is collected from the transfected cell culture and used for infection to increase its titre. Virus containing media obtained after two rounds of infection is used for large-scale protein expression. For large-scale protein expression 100 cm^2 round tissue culture plates are seeded with 5×10^7 cells/plate and infected with 1 mL of virus-containing media (approx. 5 MOIs). After 3 days the cells are scraped off the plate and centrifuged at 500 rpm for 5 min. Cell pellets from 10-20, 100 cm^2 plates are resuspended in 50 mL of ice-cold lysis buffer (25 mM Tris-HCl, pH 7.5, 2 mM EDTA-1% NP-40. 1 mM DTT, 1 mM PMSF). The cells are stirred on ice for 15 min and then centrifuged at 5000 rpms for 20 min.
Purification of GST-tagged protein: The centrifuged cell lysate is loaded onto a 2 mL glutathione-sepharose column (Pharmacia) and washed three times with 10 mL of 25 mM Tris-HCl, pH 7.5, 2 mM EDTA, 1 mM DTT, 200 mM NaCl. The GST-tagged protein is then eluted by 10 applications (1 mL each) of 25 mM Tris-HCl, pH 7.5, 10 mM reduced-glutathione, 100 mM NaCl, 1 mM DTT, 10% Glycerol and stored at −70° C.
Measurement of enzyme activity: Tyrosine protein kinase assays with purified GST-Flt-3 protein are carried out in a final volume of 30 μL containing 200-1800 ng of enzyme protein (depending on the specific activity), 20 mM Tris-HCl, pH 7.6, 3 mM MnCl2, 3 mM MgCl2, 1 mM DTT, 10 μM Na3VO4, 3 μg/mL poly(Glu, Tyr) 4:1, 1% DMSO, 8.0 μM ATP and 0.1 μCi [γ^33 P] ATP. The activity is assayed in the presence or absence of inhibitors, by measuring the incorporation of ^33P from [γ^33P] ATP into the poly(Glu,Tyr) substrate. The assay (30 μL) is carried out in 96-well plates at ambient temperature for 20 min and terminated by the addition of 20 μL of 125 mM EDTA. Subsequently, 40 μL of the reaction mixture is transferred onto Immobilon-PVDF membrane (Millipore, Bedford, Mass., USA) previously soaked for 5 min with methanol, rinsed with water, then soaked for 5 min with 0.5% H3PO4 and mounted on vacuum manifold with disconnected vacuum source. After spotting all samples, vacuum is connected and each well rinsed with 200 μL 0.5% H3PO4. Membranes are removed and washed 4× on a shaker with 1.0% H3PO4, once with ethanol. Membranes are counted after drying at ambient temperature, mounting in Packard TopCount 96-well frame, and addition of 10 μL/well of Microscint™ (Packard). IC50 values are calculated by linear regression analysis of the percentage inhibition of each compound in duplicate, at four concentrations (usually 0.01, 0.1, 1 and 10 μM). One unit of protein kinase activity is defined as 1 nmole of ^33P transferred from [γ3P] […]
On to `O=C(Nc1ccc(Oc2cc(Cl)ncn2)cc1)Nc1cc(CN2CCC2)cc(C(F)(F)F)c1` [Example 1, N-[4-(6-Chloro-pyrimidin-4-yloxy)-phenyl]-N′-[3-(azetidin-1-ylmethyl)-5-trifluoromethyl-phenyl]-urea], for which 0.905 µM corresponded to half-maximal inhibition (IC50). That is a sub-micromolar value. With `CNc1cc(Oc2ccc(NC(=O)Nc3cc(CN4CCC4)cc(C(F)(F)F)c3)cc2)ncn1` [Example 2, N-[4-(6-Methylamino-pyrimidin-4-yloxy)-phenyl]-N′-(3-azetidin-1-ylmethyl-5-trifluoromethyl-phenyl)-urea] the figure was 1.2 µM; with `CC(C)N1CCN(Cc2cc(NC(=O)Nc3ccc(Oc4cc(N)ncn4)cc3)cc(C(F)(F)F)c2)CC1` [Example 8, N-[4-(6-Amino-pyrimidin-4-yloxy)-phenyl]-N′-[3-(4-isopropylpiperazin-1-ylmethyl)-5-trifluoromethyl-phenyl]-urea], 0.51 µM. With `CN1CCN(Cc2ccc(NC(=O)Nc3ccc(Oc4cc(Cl)ncn4)cc3)cc2C(F)(F)F)CC1` [Example 14, N-[4-(6-Chloro-pyrimidin-4-yloxy)-phenyl]-N′-[4-(4-methylpiperazin-1-ylmethyl)-3-trifluoromethyl-phenyl]-urea] the figure was 0.36 µM; with `CC(C)N1CCN(Cc2ccc(NC(=O)Nc3ccc(Oc4cc(Cl)ncn4)cc3)cc2C(F)(F)F)CC1` [Example 15, N-[4-(6-Chloro-pyrimidin-4-yloxy)-phenyl]-N′-[4-(4-isopropylpiperazin-1-ylmethyl)-3-trifluoromethyl-phenyl]-urea], 0.6 µM; with `CNc1cc(Oc2ccc(NC(=O)Nc3ccc(CN4CCN(C(C)C)CC4)c(C(F)(F)F)c3)cc2)ncn1` [Example 16, N-[4-(6-Methylamino-pyrimidin-4-yloxy)-phenyl]-N′-[4-(4-isopropylpiperazin-1-ylmethyl)-3-trifluoromethyl-phenyl]-urea trifluoroacetate], 0.36 µM. `CNc1cc(Oc2ccc(NC(=O)Nc3ccc(CN4CC[N+]([O-])(C(C)C)CC4)c(C(F)(F)F)c3)cc2)ncn1` [Example 17, N-[4-(6-Methylamino-pyrimidin-4-yloxy)-phenyl]-N′-[4-(4-isopropyl-4-oxy-piperazin-1-ylmethyl)-3-trifluoromethyl-phenyl]-urea trifluoroacetate]: the IC50 – broadly, the midpoint of a concentration-inhibition curve – was 0.94 µM. Compared with the last compound, the IC50 is about 2.6-fold higher. The same measure for `CN(Cc1ccc(NC(=O)Nc2ccc(Oc3cc(Cl)ncn3)cc2)cc1C(F)(F)F)C(C)(C)C` [Example 21, N-[4-(6-Chloro-pyrimidin-4-yloxy)-phenyl]-N′-[4-(methyl-^tertbutyl-amino-methyl)-3-trifluoromethyl-phenyl]-urea]: 1.8 µM. The same measure for `CNc1cc(Oc2ccc(NC(=O)Nc3ccc(CN(C)C(C)(C)C)c(C(F)(F)F)c3)cc2)ncn1` [Example 34a.1]: 1.1 µM.

`CN(Cc1ccc(NC(=O)Nc2ccc(Oc3cc(N)ncn3)cc2)cc1C(F)(F)F)C(C)(C)C` [Example 34a.3] displayed an IC50 of 0.83 µM. Regarding `CNc1cc(Oc2ccc(NC(=O)Nc3ccc(CN4CCC4)c(C(F)(F)F)c3)cc2)ncn1` [Example 34b.1], the half-maximal inhibitory concentration (IC50) was found to be 0.36 µM. `Nc1cc(Oc2ccc(NC(=O)Nc3ccc(CN4CCC4)c(C(F)(F)F)c3)cc2)ncn1` [Example 34b.3] had an IC50 of 0.37 µM. This IC50 and that of the compound before are within 1.5-fold of each other. Consider `CNc1cc(Oc2ccc(NC(=O)Nc3ccc(CN4CCN(C(C)(C)C)CC4)c(C(F)(F)F)c3)cc2)ncn1` [Example 34c.1], for which the IC50 came out at 0.54 µM. The compound `CC(C)(C)N1CCN(Cc2ccc(NC(=O)Nc3ccc(Oc4cc(N)ncn4)cc3)cc2C(F)(F)F)CC1` [Example 34c.3] yielded an IC50 of 0.35 µM. As for `CNc1cc(Oc2ccc(NC(=O)Nc3ccc(Cn4cnc(C)c4C)c(C(F)(F)F)c3)cc2)ncn1` [Example 34d.1], the IC50 worked out at 0.67 µM. The compound `Cc1ncn(Cc2ccc(NC(=O)Nc3ccc(Oc4cc(N)ncn4)cc3)cc2C(F)(F)F)c1C` [Example 34d.3] showed an IC50 of 0.29 µM. The same measure for `CNc1cc(Oc2ccc(NC(=O)Nc3ccc(Cn4ccnc4C)c(C(F)(F)F)c3)cc2)ncn1` [Example 34e.1]: 0.16 µM.

On to `Cc1nccn1Cc1ccc(NC(=O)Nc2ccc(Oc3cc(N)ncn3)cc2)cc1C(F)(F)F` [Example 34e.3], for which the IC50 was 0.079 µM. Compared with the last compound, the IC50 is about 2-fold lower.

`CCN1CCN(Cc2ccc(NC(=O)Nc3ccc(Oc4cc(NC)ncn4)cc3)cc2C)CC1` [Example 34g.1] had an IC50 of 0.3 µM. The same measure for `CCN1CCN(Cc2ccc(NC(=O)Nc3ccc(Oc4cc(N)ncn4)cc3)cc2C)CC1` [Example 34g.3]: 0.378 µM; for `CNc1cc(Oc2ccc(NC(=O)Nc3ccc(CN4CCCC4)c(C(F)(F)F)c3)cc2)ncn1` [Example 34j.1]: 0.25 µM; for `Nc1cc(Oc2ccc(NC(=O)Nc3ccc(CN4CCCC4)c(C(F)(F)F)c3)cc2)ncn1` [Example 34j.3]: 0.283 µM. The same measure for `CNc1cc(Oc2ccc(NC(=O)Nc3ccc(CN4CCOCC4)c(C(F)(F)F)c3)cc2)ncn1` [Example 34k.1]: 0.13 µM; for `Nc1cc(Oc2ccc(NC(=O)Nc3ccc(CN4CCOCC4)c(C(F)(F)F)c3)cc2)ncn1` [Example 34k.3]: 0.1 µM; for `CNc1cc(Oc2ccc(NC(=O)Nc3ccc(CN(C)C)c(C(F)(F)F)c3)cc2)ncn1` [Example 34l.1]: 0.62 µM. For `CCN(CC)Cc1ccc(NC(=O)Nc2ccc(Oc3cc(NC)ncn3)cc2)cc1C(F)(F)F` [Example 34m.1], the IC50 came out at 0.4 µM.

The compound `CCN(CC)Cc1ccc(NC(=O)Nc2ccc(Oc3cc(N)ncn3)cc2)cc1C(F)(F)F` [Example 34m.3] registered an IC50 of 0.2 µM. The same measure for `CN(C)CCCN(C)Cc1ccc(NC(=O)Nc2ccc(Oc3cc(N)ncn3)cc2)cc1C(F)(F)F` [Example 34n.3]: 0.2 µM; for `CNc1cc(Oc2ccc(NC(=O)Nc3ccc(CN4CCN(Cc5ccc(OC)cc5)CC4)c(C(F)(F)F)c3)cc2)ncn1` [Example 34p.1]: 0.59 µM.

Compound `Nc1cc(Oc2ccc(NC(=O)Nc3ccc(N4CCC(N5CCCCC5)CC4)c(C(F)(F)F)c3)cc2)ncn1` [Example 34s.2] had an IC50 of 0.24 µM.

As for `CC(C)(C)CN1CCN(Cc2ccc(NC(=O)Nc3ccc(Oc4cc(N)ncn4)cc3)cc2C(F)(F)F)CC1` [Example 34t.2], 0.29 µM corresponded to half-maximal inhibition (IC50).

Take `CC(C)(C)CN1CCN(c2ccc(NC(=O)Nc3ccc(Oc4cc(N)ncn4)cc3)cc2C(F)(F)F)CC1` [Example 34u.2]: the IC50 was 1.5 µM. With `NC(=O)c1cc(NC(=O)Nc2ccc(Oc3cc(N)ncn3)cc2)cc(C(F)(F)F)c1` [Example 38, 3-{3-[4-(6-Amino-pyrimidin-4-yloxy)-phenyl]-ureido}-5-trifluoromethyl-benzamide] the figure was 0.354 µM.

Values taken from patent US20080312192A1, “Diaryl Urea Derivatives in the Treatment of Protein Kinase Dependent Diseases” (priority 2003, published 2008).
